Assay results from publication PMC3914206.

Experiments:
Type in all cases: binding
Design in all cases: KINOMEscan: ABL1(F317L)-phosphorylated / KINOMEscan: ABL1(H396P)-nonphosphorylated / KINOMEscan: ABL1(H396P)-phosphorylated / KINOMEscan: ABL1(M351T)-phosphorylated / KINOMEscan: ABL1(T315I)-phosphorylated / KINOMEscan: ABL1-nonphosphorylated / KINOMEscan: ABL1-phosphorylated / KINOMEscan: ACVR2A / KINOMEscan: ACVR2B / KINOMEscan: ADCK3 / KINOMEscan: ADCK4 / KINOMEscan: AKT1 / KINOMEscan: AKT3 / KINOMEscan: ALK / KINOMEscan: ARK5 / KINOMEscan: AURKA / KINOMEscan: AURKC / KINOMEscan: BIKE / KINOMEscan: BMPR1A / KINOMEscan: BMPR1B / KINOMEscan: BMX / KINOMEscan: BRK / KINOMEscan: BRSK1 / KINOMEscan: BRSK2 / KINOMEscan: CAMK1 / KINOMEscan: CAMK1D / KINOMEscan: CAMK1G / KINOMEscan: CAMK2A / KINOMEscan: CAMK2B / KINOMEscan: AAK1 / KINOMEscan: CAMK2D / KINOMEscan: CAMK2G / KINOMEscan: ABL1(F317I)-nonphosphorylated / KINOMEscan: ABL1(F317I)-phosphorylated / KINOMEscan: ABL1(F317L)-nonphosphorylated: unit: % Ctrl
Conditions in all cases: Compound Concentration 10 µM
[1] = target: T1, panel of 442 kinases (Homo sapiens, UniProt P53778)
T1 construct: purchased KINOMEscan
T1 sequence (P53778 1-367): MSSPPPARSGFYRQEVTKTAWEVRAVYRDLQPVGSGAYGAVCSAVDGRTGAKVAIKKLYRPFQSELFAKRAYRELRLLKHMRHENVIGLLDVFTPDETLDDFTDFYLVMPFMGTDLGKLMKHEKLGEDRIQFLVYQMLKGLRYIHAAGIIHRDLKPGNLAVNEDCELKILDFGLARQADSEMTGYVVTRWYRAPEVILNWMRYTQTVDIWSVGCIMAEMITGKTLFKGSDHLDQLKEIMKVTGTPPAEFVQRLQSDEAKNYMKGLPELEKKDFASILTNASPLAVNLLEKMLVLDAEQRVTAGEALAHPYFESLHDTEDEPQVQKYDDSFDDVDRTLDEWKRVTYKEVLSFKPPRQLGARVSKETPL
Description: (§1) We assessed the selectivity of members of this scaffold using the KINOMEscan methodology across a near comprehensive panel of 442 kinases [[18,27]].

[2] = target: T2, panel of 442 kinases (Homo sapiens, UniProt Q02779)
T2 construct: purchased KINOMEscan
T2 sequence (Q02779 whole entry): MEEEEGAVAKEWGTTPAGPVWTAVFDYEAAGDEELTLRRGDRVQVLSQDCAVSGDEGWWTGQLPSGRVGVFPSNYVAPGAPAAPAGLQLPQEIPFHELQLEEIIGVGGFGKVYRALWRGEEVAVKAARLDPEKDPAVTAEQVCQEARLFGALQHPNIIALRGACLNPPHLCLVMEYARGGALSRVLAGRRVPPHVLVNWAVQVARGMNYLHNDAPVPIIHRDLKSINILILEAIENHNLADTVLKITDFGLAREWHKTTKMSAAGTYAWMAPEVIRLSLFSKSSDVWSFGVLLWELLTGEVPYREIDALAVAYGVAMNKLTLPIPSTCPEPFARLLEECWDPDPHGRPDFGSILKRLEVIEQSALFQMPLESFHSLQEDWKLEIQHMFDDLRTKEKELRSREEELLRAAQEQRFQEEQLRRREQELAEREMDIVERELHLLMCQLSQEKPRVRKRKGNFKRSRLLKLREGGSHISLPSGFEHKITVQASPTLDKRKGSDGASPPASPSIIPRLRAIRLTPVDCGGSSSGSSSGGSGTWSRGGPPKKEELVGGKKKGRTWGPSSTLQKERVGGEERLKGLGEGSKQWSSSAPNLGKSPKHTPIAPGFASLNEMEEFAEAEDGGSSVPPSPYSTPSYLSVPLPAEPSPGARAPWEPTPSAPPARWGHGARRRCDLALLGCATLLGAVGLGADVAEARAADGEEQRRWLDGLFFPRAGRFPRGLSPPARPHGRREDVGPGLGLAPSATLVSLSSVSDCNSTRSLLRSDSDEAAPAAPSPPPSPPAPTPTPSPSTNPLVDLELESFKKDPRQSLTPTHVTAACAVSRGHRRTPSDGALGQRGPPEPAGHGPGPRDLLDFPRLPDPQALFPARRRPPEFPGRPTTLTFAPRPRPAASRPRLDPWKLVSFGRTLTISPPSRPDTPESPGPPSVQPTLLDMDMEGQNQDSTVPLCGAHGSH
Description: as §1

[3] = target: T3, panel of 442 kinases (Homo sapiens, UniProt Q13882)
T3 construct: purchased KINOMEscan
T3 sequence (Q13882 whole entry): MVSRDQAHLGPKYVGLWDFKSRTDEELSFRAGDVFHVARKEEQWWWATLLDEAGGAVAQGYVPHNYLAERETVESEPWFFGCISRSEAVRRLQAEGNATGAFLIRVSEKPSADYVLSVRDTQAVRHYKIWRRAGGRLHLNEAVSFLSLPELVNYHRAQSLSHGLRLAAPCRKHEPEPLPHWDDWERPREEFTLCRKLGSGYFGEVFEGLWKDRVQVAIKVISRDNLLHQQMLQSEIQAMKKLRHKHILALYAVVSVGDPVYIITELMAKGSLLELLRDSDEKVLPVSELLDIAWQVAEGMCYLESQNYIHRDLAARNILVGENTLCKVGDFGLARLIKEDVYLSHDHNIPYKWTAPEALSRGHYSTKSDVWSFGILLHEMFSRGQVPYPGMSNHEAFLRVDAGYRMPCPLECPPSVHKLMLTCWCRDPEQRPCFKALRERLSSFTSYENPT
Description: as §1

Structure (SMILES)	KINOMEscan: p38-gamma [1]	KINOMEscan: MLK2 [2]	KINOMEscan: BRK [3]
COc1cc(C(=O)N2CCC(N3CCN(C)CC3)CC2)ccc1Nc1ncc2c(n1)N(C1CCCC1)c1ccccc1C(=O)N2C [Compound 25, 11-cyclopentyl-2-((2-methoxy-4-(4-(4-methylpiperazin-1-yl)piperidine-1-carbonyl)phenyl)amino)-5-methyl-5H-benzo[e]pyrimido[5,4-b][1,4]diazepin-6(11H)-one]	88	96	29
CCOc1cc(C(=O)N2CCC(N3CCN(C)CC3)CC2)ccc1Nc1ncc2c(n1)N(C1CCCC1)c1ccccc1C(=O)N2C [Compound 26]	32	100	62
COc1cc(C(=O)N2CCC(N3CCN(C)CC3)CC2)ccc1Nc1ncc2c(n1)N1CCc3cccc(c31)C(=O)N2C [Compound 24]		98	54
COc1cc(C(=O)N2CCC(N3CCN(C)CC3)CC2)ccc1Nc1ncc2c(n1)N(C)c1ccccc1C(=O)N2C [15 (LRRK2-IN-1)]	76	100	58
